Source: patent publication EP0655065B1, “27-HYDROXYRAPAMYCIN AND DERIVATIVES THEREOF” (AMERICAN HOME PRODUCTS CORPORATION, priority 1992, dated 1994)
Several values for one entry are separate records, joined by “and”; a condition that tells them apart may be missing. Equal entries are not always repeated. Where two headings read alike, the source gives them in different places.

Columns and labels:
[1] = test system: cells from the thymus of normal BALB/c mice; assay: comitogen-induced thymocyte proliferation procedure (LAF); type: cell-based; settings: for IC50: read-out: L A F (IC50)
Procedure: The comitogen-induced thymocyte proliferation procedure (LAF) was used as an in vitro measure of the immunosuppressive effects of representative compounds. Briefly, cells from the thymus of normal BALB/c mice are cultured for 72 hours with PHA and IL-1 and pulsed with tritiated thymidine during the last six hours. Cells are cultured with and without various concentrations of rapamycin, cyclosporin A, or test compound. Cells are harvested and incorporated radioactivity is determined. Inhibition of lymphoproliferation is assessed as percent change in counts per minute from non-drug treated controls. The results are expressed as an IC50.

[2] = half life (stability) in 0.1 M phosphate buffer; type: physicochemical; settings: for half-life: 0.1 m phosphate buffer, pH 7.4
Description: The 27-hydroxyrapamycin derivatives of formulas II - X are also expected to resist ring degredative reactions better than rapamycin and 31- and/or 42- substituted rapamycin derivatives of rapamycin.

[3] = test system: pinch skin graft from male DBA/2 donors transplanted to male BALB/c recipients; assay: pinch skin graft survival time; type: in vivo; settings: mean graft survival time, intraperitoneally
Procedure: A representative compound of this invention was also evaluated in an in vivo test procedure designed to determine the survival time of pinch skin graft from male DBA/2 donors transplanted to male BALB/c recipients. […] Briefly, a pinch skin graft from the donor is grafted on the dorsum of the recipient as a homograft, and an autograft is used as control in the same region. The recipients are treated with either varying concentrations of cyclosporin A as test control or the test compound, intraperitoneally. Untreated recipients serve as rejection control. The graft is monitored daily and observations are recorded until the graft becomes dry and forms a blackened scab. This is considered as the rejection day. The mean graft survival time (number of days ± S.D.) of the drug treatment group is compared with the control group.

Compound | IC50 ([1]; thymocytes cultured 72 hours with PHA and IL-1, tritiated thymidine incorporation) [nM] | half life ([2]; 0.1 M phosphate buffer (pH 7.4, 37° C)) [h] | Skin Graft (days + SD) ([3]; dose of 4 mg/kg, 4 mg/kg) | Skin Graft (days + SD) ([3]; dose of 16 mg/kg, 16 mg/kg) | inhibition at 0.1 µM ([1]; Mus musculus, T-cell, at 0.1 µM) [%] | inhibition at 1 µM ([1]; Mus musculus, T-cell, at 1 µM) [%] | IC50 ([1]; Mus musculus, Thymocyte, thymocytes cultured 72 hours with PHA and IL-1, tritiated thymidine incorporation) [nM] | half-life [2] [h] | IC50 ([1]; Mus musculus, Thymocyte, 72 h) [nM] | Skin Graft (days + SD) ([3]; dose of 4 mg/kg) [days]
27-Hydroxyrapamycin | 3.7 | 17.5 | 8.5 ± 1.2 days and 8.17 ± 0.75 days and 8.00 ± 0.63 days | 9.17 ± 0.98^+ days and 9.17 ± 0.75^+ days |  |  |  |  |  | 
CO[C@H]1C[C@@H]2CC[C@@H](C)[C@@](O)(O2)C(=O)C(=O)N2CCCC[C@H]2C(=O)O[C@H]([C@H](C)C[C@@H]2CC[C@@H](O)[C@H](OC)C2)CC(OC(C)=O)[C@H](C)/C=C(\C)[C@@H](O)[C@@H](OC)C(=O)[C@H](C)C[C@H](C)/C=C/C=C/C=C/1C (some centres unmarked) [Example 5, 27-Hydroxyrapamycin-27-ester with acetic acid] |  |  |  |  | 69 | 94 | 99 | 34 |  | 
CO[C@H]1C[C@@H]2CC[C@@H](C)[C@@](O)(O2)C(=O)C(=O)N2CCCC[C@H]2C(=O)O[C@H]([C@H](C)C[C@@H]2CC[C@@H](O)[C@H](OC)C2)CC(=O)[C@H](C)/C=C(\C)[C@@H](O)[C@@H](OC)C(=O)[C@H](C)C[C@H](C)/C=C/C=C/C=C/1C [Rapamycin] |  |  |  |  |  |  |  | 11.8 | 4.8 | 12.0 ± 1.7
